Test results reported in US5319097A, “Pharmaceutical agents” (Imperial Chemical Industries PLC, priority 1990, dated 1994).
Where two headings read alike, the source gives them in different places.

What was measured:
[1] = Acute toxicity study, mice; details: mouse, in vivo
Description: (§1) Acute toxicity studies have been conducted on compound 1 in order to obtain LD50 values.

[2] = Acute toxicity study, rats; details: rat, in vivo
Description: as §1

[3] = Recent clinical trials, oral administration to asthmatic patients; type: in vivo; details: administered orally to asthmatic patients
Description: This ability of compound 1 to be effective when administered orally is unusual and highly desirable.

[4] = Solubility in water; type: physicochemical
[5] = Physical stability of the physical forms / conversion between forms; type: physicochemical
[6] = Comparison of bioavailability in dogs (compositions with polyvinylpyrrolidone and forms A, B and X); type: in vivo; details: 20 mg tablet with polyvinylpyrrolidone
Description: During each study period, blood samples were periodically obtained from each animal and the concentration of compound 1 determined.

[7] = Bioavailability of physical forms and compositions (general statement); details: in vivo

Row | SMILES | Area under curve [6] | Maximum concentration [6] | bioavailability [7] | Half-life [6] | physical stability [5] | further results
1 | COc1cc(C(=O)NS(=O)(=O)c2ccccc2C)ccc1Cc1cn(C)c2ccc(NC(=O)OC3CCCC3)cc12 [Compound 1, N-[4-[5-(cyclopentyloxycarbonyl)amino-l-methylindol-3-ylmethyl]-3-methoxybenzoyl]-2-methylbenzenesulphonamide] |  |  |  |  |  | LD50 [1]: > 500 mg/kg; LD50 [2]: > 500 mg/kg; effectiveness in the treatment of asthma [3]: effective; solubility in water [4]: relatively poor solubility
2 | COc1cc(C(=O)NS(=O)(=O)c2ccccc2C)ccc1Cc1cn(C)c2ccc(NC(=O)OC3CCCC3)cc12 [Form A] | 4028 ng·h/mL | 1.004 µg/mL | relatively good bioavailability |  |  | conversion of form A into form B ([5]; in compositions, high relative humidity and elevated temperatures): conversion of form A into form B has been found to occur; stability of form A in the compositions ([5]; in the compositions according to the invention): acceptably stable; conversion into form B ([5]; in the presence of water): tends to convert into form B; Half-life ([6]; dog, blood, po, 20 mg, read-out: Half-life (converted)): 5.4 h
3 | COc1cc(C(=O)NS(=O)(=O)c2ccccc2C)ccc1Cc1cn(C)c2ccc(NC(=O)OC3CCCC3)cc12 [Form B, N-[4-[5-(cyclopentyloxycarbonyl)amino-l-methylindol-3-yl-methyl]-3-methoxybenzoyl]-2-methylbenzenesulphonamide] | 773 ng·h/mL | 0.105 µg/mL |  | 3.524 h |  | temperature above which form B loses water [5]: above 60 °C
4 | COc1cc(C(=O)NS(=O)(=O)c2ccccc2C)ccc1Cc1cn(C)c2ccc(NC(=O)OC3CCCC3)cc12 [Form X] | 1307 ng·h/mL | 0.314 µg/mL | relatively poor bioavailability | 3.590 h | physically stable | 
5 | COc1cc(C(=O)NS(=O)(=O)c2ccccc2C)ccc1Cc1cn(C)c2ccc(NC(=O)OC3CCCC3)cc12 [forms B] |  |  | relatively poor bioavailability |  | physically stable | 
